Results published in PubChem BioAssay AID1919009 (Molecular Pharmacology Branch, DTP, NCI, 2023).

Test system: K24384-001-R-PDC complex spheroid growth
Experiment: Anticancer human tumor K24384-001-R-PDC patient-derived pancreatic adenocarcinoma cell line growth inhibition [AhR]
Conditions: for IC50: curve of first compound; for viability, T/C: stronger effect = lower value
Procedure, shortened: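 Spheroids combined tumor cells with HUVEC endothelial cells and human MSCs as stroma. AhR antagonists were paired with standard or investigational drugs, each dosed in half-log steps down from near clinical Cmax, or from 10 microM where Cmax was unknown.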

[1] = second compound 0.1 µM, first compound 0.000949 µM
[2] = second compound 0.1 µM, first compound 0.003 µM
[3] = second compound 0.1 µM, first compound 0.00949 µM
[4] = second compound 0.1 µM, first compound 0.03 µM
[5] = second compound 0.1 µM, first compound 0.0949 µM
[6] = second compound 0.1 µM, first compound 0.3 µM
[7] = second compound 0.316 µM, first compound 0.000949 µM
[8] = second compound 0.316 µM, first compound 0.003 µM
[9] = second compound 0.316 µM, first compound 0.00949 µM
[10] = second compound 0.316 µM, first compound 0.03 µM
[11] = second compound 0.316 µM, first compound 0.0949 µM
[12] = second compound 0.316 µM, first compound 0.3 µM
[13] = second compound 1 µM, first compound 0.000949 µM
[14] = second compound 1 µM, first compound 0.003 µM
[15] = second compound 1 µM, first compound 0.00949 µM
[16] = second compound 1 µM, first compound 0.03 µM
[17] = second compound 1 µM, first compound 0.0949 µM
[18] = second compound 1 µM, first compound 0.3 µM
[19] = second compound 3.16 µM, first compound 0.000949 µM
[20] = second compound 3.16 µM, first compound 0.003 µM
[21] = second compound 3.16 µM, first compound 0.00949 µM
[22] = second compound 3.16 µM, first compound 0.03 µM
[23] = second compound 3.16 µM, first compound 0.0949 µM
[24] = second compound 3.16 µM, first compound 0.3 µM
[25] = second compound 10 µM, first compound 0.000949 µM
[26] = second compound 10 µM, first compound 0.003 µM
[27] = second compound 10 µM, first compound 0.00949 µM
[28] = second compound 10 µM, first compound 0.03 µM
[29] = second compound 10 µM, first compound 0.0949 µM
[30] = second compound 10 µM, first compound 0.3 µM
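Throughout, for viability, T/C: percent of DMSO vehicle-treated spheroid viability set as 100%.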

Work on `CC(C)CC(NC(=O)C(Cc1ccccc1)NC(=O)c1cnccn1)B(O)O` (stereo not given) + Cc1cncc(-c2nc(NCCc3c[nH]c4ccccc34)c3ncn(C(C)C)c3n2)c1 yielded an IC50 (second compound 0.1 µM) of 7.54 nM, an IC50 (second compound 0.316 µM) of 11.2 nM and an IC50 (second compound 1 µM) of 10.7 nM. The IC50 (second compound 3.16 µM) was 7.07 nM, the IC50 (second compound 10 µM) was less than 0.949 nM and the viability, T/C [1] was 112%. The viability, T/C [2] was 83.3%, the viability, T/C [3] was 46.1% and the viability, T/C [4] was 1.55%. The viability, T/C [5] was 0.43%, the viability, T/C [6] was 0.56% and the viability, T/C [7] was 107%. The viability, T/C [8] was 95%, the viability, T/C [9] was 58.9% and the viability, T/C [10] was 1.17%. For the same compound, the viability, T/C [11] was 0.65%, the viability, T/C [12] was 0.45% and the viability, T/C [13] was 116%. For the same compound, the viability, T/C [14] was 106%, the viability, T/C [15] was 56.6% and the viability, T/C [16] was 0.7%. It also gave a viability, T/C [17] of 0.26%, a viability, T/C [18] of 0.31% and a viability, T/C [19] of 83.9%. It also gave a viability, T/C [20] of 97%, a viability, T/C [21] of 36.1% and a viability, T/C [22] of 0.65%. For the same compound, the viability, T/C [23] was 2.21%, the viability, T/C [24] was 0.22% and the viability, T/C [25] was 21.9%. The viability, T/C [26] was 24.2%, the viability, T/C [27] was 12.7% and the viability, T/C [28] was 0.35%. The viability, T/C [29] was 1.63% and the viability, T/C [30] was 1.52%.

`CCc1c2c(nc3ccc(O)cc13)-c1cc3c(c(=O)n1C2)COC(=O)[C@]3(O)CC` + Cc1cncc(-c2nc(NCCc3c[nH]c4ccccc34)c3ncn(C(C)C)c3n2)c1 gave an IC50 (second compound 0.1 µM) of 2.95 nM, an IC50 (second compound 0.316 µM) of 3.6 nM and an IC50 (second compound 1 µM) of 5.67 nM. The IC50 (second compound 3.16 µM) was 6.01 nM, the IC50 (second compound 10 µM) was less than 0.949 nM and the viability, T/C [1] was 67.3%. For the same compound, the viability, T/C [2] was 48.4%, the viability, T/C [3] was 33.4% and the viability, T/C [4] was 34.9%. The viability, T/C [5] was 28%, the viability, T/C [6] was 16.8% and the viability, T/C [7] was 68.9%. The viability, T/C [8] was 47.1%, the viability, T/C [9] was 37.6% and the viability, T/C [10] was 35.9%. It also gave a viability, T/C [11] of 23.9%, a viability, T/C [12] of 14% and a viability, T/C [13] of 76.9%. The viability, T/C [14] was 59.1%, the viability, T/C [15] was 41.5% and the viability, T/C [16] was 32%. The viability, T/C [17] was 26.4%, the viability, T/C [18] was 16.8% and the viability, T/C [19] was 60%. For the same compound, the viability, T/C [20] was 52.6%, the viability, T/C [21] was 49.2% and the viability, T/C [22] was 29.8%. It also gave a viability, T/C [23] of 21.7%, a viability, T/C [24] of 13.9% and a viability, T/C [25] of 5.03%. It also gave a viability, T/C [26] of 5.63%, a viability, T/C [27] of 6.51% and a viability, T/C [28] of 3.31%. It also gave a viability, T/C [29] of 4.86% and a viability, T/C [30] of 3.7%.

Work on `COc1cc(Nc2ncc3c(n2)-c2ccc(Cl)cc2C(c2c(F)cccc2OC)=NC3)ccc1C(=O)O` + Cc1cncc(-c2nc(NCCc3c[nH]c4ccccc34)c3ncn(C(C)C)c3n2)c1 yielded an IC50 (second compound 0.1 µM) of 943 nM, an IC50 (second compound 0.316 µM) of 2150 nM and an IC50 (second compound 1 µM) greater than 10000 nM. It also gave an IC50 (second compound 3.16 µM) of 10000 nM, an IC50 (second compound 10 µM) of less than 31.6 nM and a viability, T/C (second compound 0.1 µM, first compound 0.0316 µM) of 81.9%. It also gave a viability, T/C (second compound 0.1 µM, first compound 0.1 µM) of 70.1%, a viability, T/C (second compound 0.1 µM, first compound 0.316 µM) of 69.6% and a viability, T/C (second compound 0.1 µM, first compound 1 µM) of 43.9%. The viability, T/C (second compound 0.1 µM, first compound 3.16 µM) was 53.1%, the viability, T/C (second compound 0.1 µM, first compound 10 µM) was 49.9% and the viability, T/C (second compound 0.316 µM, first compound 0.0316 µM) was 95%. It also gave a viability, T/C (second compound 0.316 µM, first compound 0.1 µM) of 66.4%, a viability, T/C (second compound 0.316 µM, first compound 0.316 µM) of 68% and a viability, T/C (second compound 0.316 µM, first compound 1 µM) of 41.1%. It also gave a viability, T/C (second compound 0.316 µM, first compound 3.16 µM) of 53.4%, a viability, T/C (second compound 0.316 µM, first compound 10 µM) of 47.7% and a viability, T/C (second compound 1 µM, first compound 0.0316 µM) of 85.3%. For the same compound, the viability, T/C (second compound 1 µM, first compound 0.1 µM) was 82.7%, the viability, T/C (second compound 1 µM, first compound 0.316 µM) was 75.2% and the viability, T/C (second compound 1 µM, first compound 1 µM) was 63%. The viability, T/C (second compound 1 µM, first compound 3.16 µM) was 50.3%, the viability, T/C (second compound 1 µM, first compound 10 µM) was 51.5% and the viability, T/C (second compound 3.16 µM, first compound 0.0316 µM) was 80.5%. It also gave a viability, T/C (second compound 3.16 µM, first compound 0.1 µM) of 77.2%, a viability, T/C (second compound 3.16 µM, first compound 0.316 µM) of 72.8% and a viability, T/C (second compound 3.16 µM, first compound 1 µM) of 44.8%. The viability, T/C (second compound 3.16 µM, first compound 3.16 µM) was 58.6%, the viability, T/C (second compound 3.16 µM, first compound 10 µM) was 62.1% and the viability, T/C (second compound 10 µM, first compound 0.0316 µM) was 11.1%. For the same compound, the viability, T/C (second compound 10 µM, first compound 0.1 µM) was 11.8%, the viability, T/C (second compound 10 µM, first compound 0.316 µM) was 10.3% and the viability, T/C (second compound 10 µM, first compound 1 µM) was 9.55%. The viability, T/C (second compound 10 µM, first compound 3.16 µM) was 9.44% and the viability, T/C (second compound 10 µM, first compound 10 µM) was 17%.
